Assay results as given in PubChem BioAssay AID2060887 (Molecular Pharmacology Branch, DTP, NCI, 2025).

Tested on: 782815-120-R-J1-PDC complex spheroid viability
Experiment: Anticancer human tumor 782815-120-R-J1-PDC patient-derived colon adenocarcinoma cell line growth inhibition [RAS]
Conditions: for IC50: curve of first compound; for viability, T/C: stronger effect = lower value; active = viability on the fitted dose curve at most 10% of control; inactive = the rest
Procedure, shortened: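 Multi-cell-type spheroids: tumor cells plus HUVEC endothelial cells and mesenchymal stem cells. RAS-pathway inhibitors were combined with targeted agents, each dosed in half-log steps down from clinical Cmax, or from 10 microM when Cmax was unknown.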

[1] = second compound 0.000949 µM, first compound 0.0316 µM
[2] = second compound 0.000949 µM, first compound 0.1 µM
[3] = second compound 0.000949 µM, first compound 0.316 µM
[4] = second compound 0.000949 µM, first compound 1 µM
[5] = second compound 0.000949 µM, first compound 3.16 µM
[6] = second compound 0.000949 µM, first compound 10 µM
[7] = second compound 0.003 µM, first compound 0.0316 µM
[8] = second compound 0.003 µM, first compound 0.1 µM
[9] = second compound 0.003 µM, first compound 0.316 µM
[10] = second compound 0.003 µM, first compound 1 µM
[11] = second compound 0.003 µM, first compound 3.16 µM
[12] = second compound 0.003 µM, first compound 10 µM
[13] = second compound 0.00949 µM, first compound 0.0316 µM
[14] = second compound 0.00949 µM, first compound 0.1 µM
[15] = second compound 0.00949 µM, first compound 0.316 µM
[16] = second compound 0.00949 µM, first compound 1 µM
[17] = second compound 0.00949 µM, first compound 3.16 µM
[18] = second compound 0.00949 µM, first compound 10 µM
[19] = second compound 0.03 µM, first compound 0.0316 µM
[20] = second compound 0.03 µM, first compound 0.1 µM
[21] = second compound 0.03 µM, first compound 0.316 µM
[22] = second compound 0.03 µM, first compound 1 µM
[23] = second compound 0.03 µM, first compound 3.16 µM
[24] = second compound 0.03 µM, first compound 10 µM
[25] = second compound 0.0949 µM, first compound 0.0316 µM
[26] = second compound 0.0949 µM, first compound 0.1 µM
[27] = second compound 0.0949 µM, first compound 0.316 µM
[28] = second compound 0.0949 µM, first compound 1 µM
[29] = second compound 0.0949 µM, first compound 3.16 µM
[30] = second compound 0.0949 µM, first compound 10 µM
[31] = second compound 0.3 µM, first compound 0.0316 µM
[32] = second compound 0.3 µM, first compound 0.1 µM
[33] = second compound 0.3 µM, first compound 0.316 µM
[34] = second compound 0.3 µM, first compound 1 µM
[35] = second compound 0.3 µM, first compound 3.16 µM
[36] = second compound 0.3 µM, first compound 10 µM
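Also: spheroids exposed to compounds for 7 days before reading.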
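For viability, T/C in this document: 100% = DMSO vehicle control viability.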

CC1(O)CCCC1n1c(=O)c(C(F)F)cc2cnc(NC3CCN(S(C)(=O)=O)CC3)nc21 (stereo unspecified) + CCn1c(-c2cccnc2C(C)OC)c2c3cc(ccc31)N1CCOC(CC(NC(=O)C(C(C)C)N(C)C(=O)C3(F)CCN(C(=O)C#CC(C)(C)N(C)C)CC3)C(=O)N3CCCC(N3)C(=O)OCC(C)(C)C2)C1
4.04 µM: IC50 (second compound 0.00949 µM)
inactive: viability, T/C [1] 61.7% | viability, T/C [2] 57.9% | viability, T/C [3] 65.8% | viability, T/C [4] 63% | viability, T/C [5] 61.5% | viability, T/C [6] 23.8% | viability, T/C [7] 63.4% | viability, T/C [8] 64.5% | viability, T/C [9] 63.5% | viability, T/C [10] 54.9% | viability, T/C [11] 65.2% | viability, T/C [12] 25.2% | viability, T/C [13] 57.6% | viability, T/C [14] 55.1% | viability, T/C [15] 64.3% | viability, T/C [16] 70.3% | viability, T/C [17] 55% | viability, T/C [18] 24% | viability, T/C [19] 69.3% | viability, T/C [20] 53.7% | viability, T/C [21] 69.1% | viability, T/C [22] 61.9% | viability, T/C [23] 61.3% | viability, T/C [24] 24.8% | viability, T/C [25] 67% | viability, T/C [26] 59.5% | viability, T/C [27] 70.3% | viability, T/C [28] 65.2% | viability, T/C [29] 71.1% | viability, T/C [30] 22% | viability, T/C [31] 66.7% | viability, T/C [32] 50.9% | viability, T/C [33] 58% | viability, T/C [34] 69.2% | viability, T/C [35] 61.5% | viability, T/C [36] 18.7%
4.29 µM: IC50 (second compound 0.3 µM)
4.86 µM: IC50 (second compound 0.0949 µM)
4.5 µM: IC50 (second compound 0.000949 µM) | IC50 (second compound 0.03 µM)
4.63 µM: IC50 (second compound 0.003 µM)

CCC(CC)c1cc(NC2CCC(N)C2)n2nccc2n1 (stereo unspecified) + CCn1c(-c2cccnc2C(C)OC)c2c3cc(ccc31)N1CCOC(CC(NC(=O)C(C(C)C)N(C)C(=O)C3(F)CCN(C(=O)C#CC(C)(C)N(C)C)CC3)C(=O)N3CCCC(N3)C(=O)OCC(C)(C)C2)C1
2.93 µM: IC50 (second compound 0.000949 µM)
2.85 µM: IC50 (second compound 0.0949 µM)
2.74 µM: IC50 (second compound 0.03 µM)
3.08 µM: IC50 (second compound 0.003 µM)
2.86 µM: IC50 (second compound 0.00949 µM)
inactive: viability, T/C [1] 98.6% | viability, T/C [2] 90.5% | viability, T/C [3] 103% | viability, T/C [4] 100% | viability, T/C [5] 46.6% | viability, T/C [7] 97.9% | viability, T/C [8] 92.7% | viability, T/C [9] 97.4% | viability, T/C [10] 96.8% | viability, T/C [11] 48.9% | viability, T/C [13] 101% | viability, T/C [14] 102% | viability, T/C [15] 95.9% | viability, T/C [16] 102% | viability, T/C [17] 45.1% | viability, T/C [19] 94.2% | viability, T/C [20] 96.5% | viability, T/C [21] 103% | viability, T/C [22] 108% | viability, T/C [23] 42.8% | viability, T/C [25] 97.6% | viability, T/C [26] 99% | viability, T/C [27] 97.4% | viability, T/C [28] 106% | viability, T/C [29] 45% | viability, T/C [31] 91.9% | viability, T/C [32] 92.6% | viability, T/C [33] 94.3% | viability, T/C [34] 101% | viability, T/C [35] 34.9%
active: viability, T/C [6] 2.15% | viability, T/C [12] 1.8% | viability, T/C [18] 2.14% | viability, T/C [24] 2.25% | viability, T/C [30] 2.54% | viability, T/C [36] 3.21%
2.36 µM: IC50 (second compound 0.3 µM)

CCN1CCN(Cc2ccc(Nc3ncc(F)c(-c4cc(F)c5nc(C)n(C(C)C)c5c4)n3)nc2)CC1 + CCn1c(-c2cccnc2C(C)OC)c2c3cc(ccc31)N1CCOC(CC(NC(=O)C(C(C)C)N(C)C(=O)C3(F)CCN(C(=O)C#CC(C)(C)N(C)C)CC3)C(=O)N3CCCC(N3)C(=O)OCC(C)(C)C2)C1
> 1 µM: IC50 (second compound 0.000949 µM) | IC50 (second compound 0.003 µM) | IC50 (second compound 0.00949 µM) | IC50 (second compound 0.03 µM) | IC50 (second compound 0.0949 µM) | IC50 (second compound 0.3 µM)
inactive: viability, T/C (second compound 0.000949 µM, first compound 0.00316 µM) 104% | viability, T/C (second compound 0.000949 µM, first compound 0.01 µM) 99.3% | viability, T/C [1] 106% | viability, T/C [2] 92% | viability, T/C [3] 124% | viability, T/C [4] 125% | viability, T/C (second compound 0.003 µM, first compound 0.00316 µM) 95% | viability, T/C (second compound 0.003 µM, first compound 0.01 µM) 97% | viability, T/C [7] 95.7% | viability, T/C [8] 98% | viability, T/C [9] 118% | viability, T/C [10] 121% | viability, T/C (second compound 0.00949 µM, first compound 0.00316 µM) 96.3% | viability, T/C (second compound 0.00949 µM, first compound 0.01 µM) 99.6% | viability, T/C [13] 102% | viability, T/C [14] 103% | viability, T/C [15] 118% | viability, T/C [16] 127% | viability, T/C (second compound 0.03 µM, first compound 0.00316 µM) 99.8% | viability, T/C (second compound 0.03 µM, first compound 0.01 µM) 109% | viability, T/C [19] 101% | viability, T/C [20] 102% | viability, T/C [21] 117% | viability, T/C [22] 127% | viability, T/C (second compound 0.0949 µM, first compound 0.00316 µM) 92.3% | viability, T/C (second compound 0.0949 µM, first compound 0.01 µM) 95.5% | viability, T/C [25] 97% | viability, T/C [26] 102% | viability, T/C [27] 123% | viability, T/C [28] 134% | viability, T/C (second compound 0.3 µM, first compound 0.00316 µM) 92.8% | viability, T/C (second compound 0.3 µM, first compound 0.01 µM) 91.6% | viability, T/C [31] 104% | viability, T/C [32] 110% | viability, T/C [33] 122% | viability, T/C [34] 122%
